The values that follow are results of earlier work, collected in US20180140566A1, “ACETAMINOPHEN AND TRAMADOL COMPOUND ORAL SOLUTION” (BORA PHARMACEUTICALS CO., LTD., priority 2016, published 2018).

Molecules are shown by their SMILES.

Consider `COc1cccc(C2(O)CCCCC2CN(C)C)c1` (stereo not drawn) [Tramadol, tramadol], for which the solubility in acetone result (acetone, in words) is reported as “hardly dissolves”. Also, the solubility in water result (water, in words) was “makes great aqueous solutions”.

On to `CC(=O)Nc1ccc(O)cc1` [acetaminophen], for which, where the note is “per milliliter (mL) of water, at 25 degrees Celsius”, the “amount of acetaminophen dissolved per milliliter of water” value is reported as “no more than 14.00 mg”.
